Calls of active or inactive are those of the source.

The target in experiment [1] is FAD-linked sulfhydryl oxidase ALR (Homo sapiens, UniProt P55789). The experiment is described as follows: inhibitors of human ALR sulfhydryl oxidase, dose response, biochemical, H2O2 detection, luminescence, cherry-pick (AID 493248).
In experiment [2] the target is T1, Ubiquitin-conjugating enzyme E2 N (Homo sapiens, UniProt P61088).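 Also: Dose-response confirmation in a TR-FRET assay detecting UBC13-driven polyubiquitin chain formation, inhibition measured.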
T1 sequence (P61088 whole entry): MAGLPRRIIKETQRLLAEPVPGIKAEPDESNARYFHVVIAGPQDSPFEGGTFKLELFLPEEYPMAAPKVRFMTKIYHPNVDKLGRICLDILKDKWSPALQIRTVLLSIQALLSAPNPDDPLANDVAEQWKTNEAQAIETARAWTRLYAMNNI
Type of experiment: functional.

The target of experiment [3] is T2, Corticotropin-releasing factor receptor 2/Corticotropin-releasing factor-binding protein (Homo sapiens, UniProt P24387+Q13324).
T2 sequence (Q13324 whole entry): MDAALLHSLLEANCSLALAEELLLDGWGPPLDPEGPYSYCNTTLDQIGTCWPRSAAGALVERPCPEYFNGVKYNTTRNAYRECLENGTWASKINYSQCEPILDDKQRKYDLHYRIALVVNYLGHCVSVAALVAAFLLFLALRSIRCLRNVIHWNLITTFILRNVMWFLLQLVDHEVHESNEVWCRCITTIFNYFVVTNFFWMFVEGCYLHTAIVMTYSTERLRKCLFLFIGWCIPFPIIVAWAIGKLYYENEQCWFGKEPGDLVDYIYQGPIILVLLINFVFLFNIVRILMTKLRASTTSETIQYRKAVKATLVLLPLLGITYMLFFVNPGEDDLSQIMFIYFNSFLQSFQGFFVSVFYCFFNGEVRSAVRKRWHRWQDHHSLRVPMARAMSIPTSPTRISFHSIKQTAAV
T2 sequence (P24387 whole entry): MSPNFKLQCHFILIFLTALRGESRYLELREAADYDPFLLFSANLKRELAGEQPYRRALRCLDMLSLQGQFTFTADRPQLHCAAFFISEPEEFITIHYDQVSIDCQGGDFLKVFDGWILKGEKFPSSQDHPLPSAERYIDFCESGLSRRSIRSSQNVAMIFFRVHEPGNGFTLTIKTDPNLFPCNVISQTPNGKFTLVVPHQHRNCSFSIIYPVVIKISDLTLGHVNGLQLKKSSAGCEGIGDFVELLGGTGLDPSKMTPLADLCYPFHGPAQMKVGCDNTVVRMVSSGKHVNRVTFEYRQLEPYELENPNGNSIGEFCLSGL
The experiment is described as follows: activators of CRF receptor 2 with binding protein – uHTS hits, confirmation (AID 602473). Type of experiment: functional. The following applies: read-out: EC50_Mean.

A further experiment addresses Cytochrome P450 2D6 (Homo sapiens, UniProt P10635).
A further experiment addresses T3, Cytochrome P450 1A2 (Homo sapiens, UniProt P05177).
T3 sequence (P05177 whole entry): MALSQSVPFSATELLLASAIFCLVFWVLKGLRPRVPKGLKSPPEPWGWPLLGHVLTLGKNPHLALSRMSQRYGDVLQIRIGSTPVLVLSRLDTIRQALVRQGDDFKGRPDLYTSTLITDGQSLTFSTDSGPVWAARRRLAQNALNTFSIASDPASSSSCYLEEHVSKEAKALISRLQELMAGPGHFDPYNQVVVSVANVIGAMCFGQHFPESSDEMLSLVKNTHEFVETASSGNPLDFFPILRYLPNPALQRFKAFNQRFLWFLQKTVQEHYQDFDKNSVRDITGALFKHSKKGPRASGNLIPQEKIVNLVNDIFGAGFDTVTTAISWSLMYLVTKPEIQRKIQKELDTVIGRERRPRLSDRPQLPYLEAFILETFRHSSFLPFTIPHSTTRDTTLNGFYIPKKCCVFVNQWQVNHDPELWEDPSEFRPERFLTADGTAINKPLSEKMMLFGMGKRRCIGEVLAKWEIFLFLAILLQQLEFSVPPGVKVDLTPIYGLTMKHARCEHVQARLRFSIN

The subject of experiment [4] is Streptococcus sp. 'group A'. Description: growth inhibition of control SK(-) GAS strain, dose response, counter-screen for streptokinase expression inhibitor project, luminescence, kanamycin, BacTiterGlo, confirmation (AID 1900). Type of experiment: functional, organism-based. Background: Counterscreens check selectivity or assay interference.
A short description of experiment [5]: cytotoxicity toward NIH3T3 fibroblasts, dose response, counter-screen, cell-based, ATP luminescence, mouse fibroblasts (AID 2010).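 Also: cells exposed to compound for about 90 hours before reading.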 Type of experiment: functional.
The next experiment deals with Streptococcus. Description: Group A Streptococcus viability loss, dose response, counter-screen for streptokinase expression inhibitor project, luminescence, BacTiterGlo (AID 1915).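 Also: potency for reduction of bacterial viability or growth.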 In kind it is functional, organism-based.
Experiment [6] can be described thus: growth suppression of PTEN-null colon cells, dose response, cell-based, HCT116 PTEN knockout (AID 1047).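 Also: HCT116 colon tumor cells with PTEN knocked out; cells exposed to compound for 60 hours before readout; potency for loss of cell viability measured by luminescence.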 Type of experiment: functional.
Experiment [7] can be described thus: C. albicans growth with fluconazole, confirmation, fluorescence, retest (AID 2467). Type of experiment: functional, cell-based.
Experiment [8] can be described thus: NIH-3T3 fibroblast cytotoxicity, dose response, cytotoxicity control, cell-based, fluorescence, Alamar Blue, secondary assay (AID 2327).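 Also: NIH-3T3 mouse fibroblasts cultured with fluconazole at 8 µg/mL.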 Type of experiment: functional. On the technique in general: The colour change of resazurin is a common sign of viable cells or microbes.
The nature of experiment [9]: growth suppression of beta-catenin-knockout colon cells, dose response, cell-based, HCT116, human colon tumor (AID 1045).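 Also: HCT116 colon tumor cells with beta catenin knocked out; cells exposed to compound for 60 hours.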 In kind it is functional.
The target in a further experiment is T4, Streptokinase A (Streptococcus pyogenes serotype M1, UniProt P10520).
T4 sequence (P10520 whole entry): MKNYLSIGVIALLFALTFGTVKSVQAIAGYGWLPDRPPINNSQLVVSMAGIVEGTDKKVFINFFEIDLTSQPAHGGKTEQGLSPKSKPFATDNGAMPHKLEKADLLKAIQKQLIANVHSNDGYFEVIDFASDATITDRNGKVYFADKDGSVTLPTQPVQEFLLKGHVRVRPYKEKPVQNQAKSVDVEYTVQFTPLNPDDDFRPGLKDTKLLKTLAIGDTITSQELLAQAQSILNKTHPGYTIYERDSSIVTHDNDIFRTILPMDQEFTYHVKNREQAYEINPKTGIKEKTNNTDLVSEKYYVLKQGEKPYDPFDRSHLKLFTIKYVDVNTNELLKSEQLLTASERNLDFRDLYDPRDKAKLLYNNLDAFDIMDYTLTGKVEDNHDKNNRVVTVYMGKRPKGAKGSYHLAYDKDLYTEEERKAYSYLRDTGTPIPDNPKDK
The experiment is described as follows: S. pyogenes streptokinase expression inhibitors, potency, dose response, plasminogen activation absorbance, OD405 (AID 1914).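 Also: secreted streptokinase activity via plasminogen activation per viability signal from cell pellet.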 In kind it is functional, Streptococcus pyogenes M1 GAS.

The nature of experiment [10]: inhibitors of intracellular T. cruzi replication, confirmation, NIH3T3 host cells, beta-gal luminescence (AID 2044).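 Also: intracellular parasites grown in NIH/3T3 mouse fibroblasts as host cells; luminescent beta-galactosidase reporter signal from transgenic T. cruzi replicating inside host cells; inhibitors lower the luminescence signal.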 In kind it is functional, cell-based.
The subject of a further experiment is INS1. Description: beta cell apoptosis inhibitors, cytokine rescue, dose response, luminescence, retest (AID 449756).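 Also: cell death triggered by IL-1 beta plus TNF-alpha plus IFN-gamma mixture; protective hits raise ATP signal compared with cytokine alone wells.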 Type of experiment: functional, cell-based. The following applies: Rattus norvegicus.
Experiment [11] in a line: microbe, parasite or virus in culture. Type of experiment: functional. The following applies: Mycobacterium tuberculosis.
For experiment [12], the target named is T5, Rac GTPase-activating protein 1 (Homo sapiens, UniProt Q9H0H5).
T5 sequence (Q9H0H5 whole entry): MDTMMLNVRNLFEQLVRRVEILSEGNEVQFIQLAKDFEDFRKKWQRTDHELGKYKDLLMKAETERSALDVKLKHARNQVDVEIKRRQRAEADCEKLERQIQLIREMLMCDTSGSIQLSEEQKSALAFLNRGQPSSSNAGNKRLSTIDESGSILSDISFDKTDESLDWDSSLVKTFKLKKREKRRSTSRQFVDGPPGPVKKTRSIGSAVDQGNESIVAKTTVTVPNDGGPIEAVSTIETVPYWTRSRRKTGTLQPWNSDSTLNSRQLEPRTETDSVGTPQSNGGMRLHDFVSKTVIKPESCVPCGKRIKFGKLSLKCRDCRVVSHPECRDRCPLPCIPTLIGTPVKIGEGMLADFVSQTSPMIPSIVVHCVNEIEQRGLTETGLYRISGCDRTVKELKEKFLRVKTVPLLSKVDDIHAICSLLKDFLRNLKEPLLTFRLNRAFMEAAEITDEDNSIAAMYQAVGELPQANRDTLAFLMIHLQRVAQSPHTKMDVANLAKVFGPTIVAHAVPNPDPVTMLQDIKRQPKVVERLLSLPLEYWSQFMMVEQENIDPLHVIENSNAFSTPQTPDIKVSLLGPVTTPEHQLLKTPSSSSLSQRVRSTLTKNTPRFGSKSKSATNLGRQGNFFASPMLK
The experiment is described as follows: MgcRacGAP GTPase-activating activity inhibitors, confirmation, biochemical, ADP Hunter fluorescence, primary and confirmatory (AID 624330). In kind it is functional.

Another experiment relates to H9c2. The experiment is described as follows: cells. In kind it is functional, cell-based. The following applies: Rattus norvegicus, H9c2, Myocardium.
Experiment [13] can be described thus: HEp-2 cell cytotoxicity, dose response, cytotoxicity control for RSV inhibitor project, HTS (AID 2410). Type of experiment: functional. The following applies: human respiratory syncytial virus.
A short description of experiment [14]: LGR2 antagonists, dose response, cell-based, HEK293, CRE-luciferase reporter, cherry pick, set 2 (AID 743343).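 Also: transfected cells were stimulated with diluted bursicon conditioned medium after compound addition.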 Type of experiment: functional. For orientation: A reporter such as luciferase makes a cellular process visible.
Experiment [15] is described as follows: MC4R antagonists, dose response, counter-screen for LGR2 antagonist project, cell-based, plate reader, cherry pick (AID 743444).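 Also: transfected HEK 293 cells stimulated with alpha-MSH peptide; potency of inhibitors of the alpha-MSH evoked signal.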 Type of experiment: functional.

FAD-linked sulfhydryl oxidase ALR, sequence (P55789 whole entry): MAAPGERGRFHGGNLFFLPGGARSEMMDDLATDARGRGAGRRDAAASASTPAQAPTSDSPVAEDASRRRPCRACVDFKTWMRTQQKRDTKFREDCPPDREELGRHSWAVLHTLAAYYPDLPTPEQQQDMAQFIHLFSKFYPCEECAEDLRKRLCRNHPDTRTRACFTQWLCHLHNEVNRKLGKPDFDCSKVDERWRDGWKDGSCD
Cytochrome P450 2D6, sequence (P10635 whole entry): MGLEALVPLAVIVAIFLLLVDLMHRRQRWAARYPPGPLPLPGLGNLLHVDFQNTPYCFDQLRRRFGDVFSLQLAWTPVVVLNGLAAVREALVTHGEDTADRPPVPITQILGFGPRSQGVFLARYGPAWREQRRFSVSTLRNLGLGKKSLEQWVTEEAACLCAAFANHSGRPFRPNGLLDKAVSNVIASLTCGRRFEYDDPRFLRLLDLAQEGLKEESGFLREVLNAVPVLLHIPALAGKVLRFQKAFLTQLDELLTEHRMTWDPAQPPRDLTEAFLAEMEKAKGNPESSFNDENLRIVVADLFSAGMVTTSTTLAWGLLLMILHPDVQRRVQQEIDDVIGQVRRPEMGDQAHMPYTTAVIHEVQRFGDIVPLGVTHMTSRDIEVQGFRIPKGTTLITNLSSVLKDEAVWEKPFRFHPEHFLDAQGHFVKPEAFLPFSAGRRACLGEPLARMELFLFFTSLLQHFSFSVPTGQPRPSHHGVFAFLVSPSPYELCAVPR

A word on the AC50: it is the concentration at which the activity in the assay is half-maximal. For `COc1ccc(N2CCN(CCCNC(=O)C3CCCN(S(=O)(=O)c4c[nH]cn4)C3)CC2)cc1` (stereo not drawn), the AC50 in experiment [1] was 25.4 µM (active).
On the same count and under the same terms, then `O=C(NCSc1ccncn1)c1ccccc1`, with 1.49 µM (active); and `Cc1nc(SCc2cccnc2)nc(O)c1C`, with 1.18 µM (active).
One may read the IC50 as the concentration that gives 50% inhibition. For `Cc1ccc(OCCCC(=O)NNC(=O)c2ccccn2)cc1`, the IC50 in experiment [2] is > 20 µM (inactive).
As to `O=C1c2ccccc2C(=O)N1c1ncc(Cc2ccc(Cl)cc2)s1`, in experiment [3], the EC50 is 2.43 µM (active).
In the case of `CN(C)CCNc1oc(COc2ccc(Cl)cc2Cl)nc1C#N`, the AC50 at Cytochrome P450 2D6 is 14.1 µM (inconclusive); at Cytochrome P450 1A2 it was 25.1 µM (inconclusive). Further, the IC50 in [2] was > 20 µM (inactive).
For the compound `OC(CNCC1CCCO1)Cn1c2ccc(Br)cc2c2cc(Br)ccc21` (stereo not drawn), the EC50 in experiment [4] is 3.18 µM (active); in experiment [5] it was > 60 µM (inconclusive); in the experiment with Streptococcus, 8.12 µM (active); in experiment [6] it was 4.41 µM (active); in experiment [7] it was > 38 µM (not active); in experiment [8], 9.05 µM (inconclusive). The EC50 in experiment [9] is 4.46 µM (active); on Streptokinase A, 7.22 µM (active); in experiment [10], 0.533 µM (active).
Turning to `CCCCCc1ccc(OCCCC[n+]2ccccc2)c(CCCCC)c1`, the EC50 in experiment [4] is 3.85 µM (active); in the experiment on Streptococcus it was 8.33 µM (active); in experiment [7], < 0.03 µM (active); in [8] it was > 160 µM (inactive); on Streptokinase A, 27.1 µM (active). Moreover, the IC50 in experiment [2] is > 20 µM (inactive). Besides, in the experiment on INS1, the AC50 was 2.79 µM (active).
Consider `O=C(O)c1ccc(NC(=O)C2CCCCC2)cc1`, for which the EC50 in [3] is > 53 µM (inactive).
On to `O=C(NC(=S)Nc1ccc(N2CCN(C(=O)c3ccccc3)CC2)cc1)c1cccs1`, for which the IC50 in [2] was > 20 µM (inactive).
On to `O=C(Nc1ccc(OC(F)(F)F)cc1)c1ccc2c(c1)no[n+]2[O-]`, for which the CC50 in [11] is 20.6 µM (active).
With `CCCc1cc(C(N)=O)c(NC(=O)c2ccoc2C)s1`, the AC50 in experiment [1] was 2.74 µM (active).
In the case of `COc1cc2nc(S)n3nc(CCn4nc(C)cc4C)nc3c2cc1OC`, the EC50 in experiment [4] was 28.4 µM (active); in the experiment on Streptococcus, > 150 µM (not active); in experiment [6], 14.5 µM (active); in experiment [9], 25 µM (active); at Streptokinase A it was > 150 µM (not active). In experiment [12], the IC50 was 23.2 µM (active).
Take `CC(=O)c1ccccc1OCC(O)CN1CCN(CCN2C(=O)c3cccc4cccc(c34)C2=O)CC1` (stereo not drawn): the IC50 in [2] is > 20 µM (inactive); in the experiment with H9c2, 23.1 µM (active). The CC50 in experiment [13] was > 50 µM (active).
`Cc1ccc(S(=O)(=O)NNC(=O)NC23CC4CC(CC(C4)C2)C3)cc1`: the AC50 in [1] is 1.02 µM (active).
Turning to `C#CCOCCOCCOCCNc1nc(N2CCN(C(=O)[C@H]([C@@H](C)CC)n3cc([C@@H](N)CC(C)C)nn3)CC2)nc(N2CCN(C(=O)[C@H]([C@@H](C)CC)n3cc([C@@H](N)CC(C)C)nn3)CC2)n1`, in experiment [2], the IC50 is > 20 µM (inactive).
For the compound `[O-][S+](c1ccc2ccccc2c1)c1cnns1` (stereo not drawn), in [1], the AC50 is 0.769 µM (active).
As for `O=C(/C=C/c1ccco1)Nc1cccc(-c2nc3ccccc3[nH]2)c1`, the EC50 in experiment [7] is 1.86 µM (active); in [8], > 150 µM (inactive). Further, the CC50 in experiment [11] is 30.8 µM (active).
Take `CC(=O)OC[C@H]1O[C@@H](O[C@@H]2C[C@H]3C(C)(C)[C@H](OC(C)=O)CC[C@]3(C)[C@H]3CC[C@]45C[C@]4(CC[C@H]5[C@@H](C)C[C@@H](O)[C@H](O)C(C)(C)O)[C@@]32C)[C@H](O)[C@@H](O)[C@@H]1O` [CUMINGIANOSIDE A]: the EC50 in [6] is 8.19 µM (active); in [9], 8.05 µM (active). The CC50 in [11] was 27.7 µM (active).
In the case of `c1ccc(-n2ncc3c(N4CCCCC4)ncnc32)cc1`, the AC50 in experiment [14] is 1.94 µM (active); in [15], 2.83 µM (active).

For the origin of these results see ChEMBL document CHEMBL1201862, “PubChem BioAssay data set” (2004).
